The target in experiment [1] is CDK7/Cyclin H/MAT1 trimeric complex (Homo sapiens, UniProt P50613). Briefly: CDK7 kinase assay, Caliper/LabChip EZ Reader (Biortus Biosciences). The format is biochemical. To be noted: CDK7/Cyclin H/MAT1 10 nM, ATP 2 mM, FAM-CDK7tide 2 μM, 30 min incubation, read-out: CDK7 Inhibition (IC50). The method, then:
Compounds of the invention were further assayed for CDK7 activity at Biortus Biosciences (Jiangyin, Jiangsu Province, P.R. of China) using a CDK7 kinase assay developed with a Caliper/LabChip EZ Reader (Perkin Elmer, Waltham, Mass.). […] The incubation period was chosen such that the total fraction of phosphorylated peptide product produced was <20% for the uninhibited kinase.

For experiment [2], the target named is T1, CDK7 (Homo sapiens, UniProt P50613).
T1 construct: purchased Life Technologies (Adapta kinase assay service)
T1 sequence (P50613 whole entry): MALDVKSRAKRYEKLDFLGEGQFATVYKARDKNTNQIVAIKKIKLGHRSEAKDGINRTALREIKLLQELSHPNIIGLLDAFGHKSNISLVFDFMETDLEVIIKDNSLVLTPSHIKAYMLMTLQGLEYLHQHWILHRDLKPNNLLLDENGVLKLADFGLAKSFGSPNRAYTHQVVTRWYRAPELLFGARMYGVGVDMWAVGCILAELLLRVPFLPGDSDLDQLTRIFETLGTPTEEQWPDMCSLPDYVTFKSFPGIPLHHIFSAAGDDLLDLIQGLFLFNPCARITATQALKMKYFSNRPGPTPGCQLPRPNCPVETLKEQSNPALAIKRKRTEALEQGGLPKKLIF
T1 sequence (P51946 whole entry partner): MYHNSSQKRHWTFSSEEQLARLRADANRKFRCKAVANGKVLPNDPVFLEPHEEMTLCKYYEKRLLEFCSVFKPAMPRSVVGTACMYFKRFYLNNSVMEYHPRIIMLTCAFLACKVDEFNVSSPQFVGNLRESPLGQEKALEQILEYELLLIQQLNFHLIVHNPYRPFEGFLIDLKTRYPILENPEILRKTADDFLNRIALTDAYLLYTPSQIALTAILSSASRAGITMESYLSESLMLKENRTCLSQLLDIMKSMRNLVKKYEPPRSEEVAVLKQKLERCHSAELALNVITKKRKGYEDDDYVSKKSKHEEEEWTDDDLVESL
T1 sequence (P51948 whole entry partner): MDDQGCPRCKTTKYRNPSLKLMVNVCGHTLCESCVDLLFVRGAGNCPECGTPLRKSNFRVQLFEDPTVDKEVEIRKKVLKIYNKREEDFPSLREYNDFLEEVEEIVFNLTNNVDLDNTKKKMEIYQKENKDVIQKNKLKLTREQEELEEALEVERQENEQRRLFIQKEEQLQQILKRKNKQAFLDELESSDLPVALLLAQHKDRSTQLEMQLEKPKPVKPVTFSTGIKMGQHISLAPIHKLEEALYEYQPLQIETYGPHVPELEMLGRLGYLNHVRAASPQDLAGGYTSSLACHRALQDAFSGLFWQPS
Description: CDK7 kinase activity, Adapta kinase assay (Life Technologies). The format is biochemical. The settings on record: Adapta kinase assay at Life Technologies; 10 μM down to 0.514 nM, 3-fold serial dilutions; read-out: CDK7 Inhibition (IC50). The method, boiled down:
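Adapta kinase activity assay run as a commercial service; substrates not specified here. Compounds tested in 3-fold serial dilutions from 10 μM down to 0.514 nM.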

For experiment [3], the system named is A673 cells. Briefly: Inhibition of proliferation of A673 cells (CyQUANT, 72 hour). The format is cell-based, human. The settings on record: 72 hour proliferation. The method, boiled down:
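Human Ewing's sarcoma A673 cells in DMEM + 10% FBS + 1 mM sodium pyruvate, 37 °C, 5% CO2, exposed to compounds from 4 μM to 126.4 pM (0.5 log dilutions) for 72 h. Proliferation read by CyQUANT; IC50 reported as binned categories.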

The subject of experiment [4] is Jurkat cells. Briefly: Inhibition of proliferation of Jurkat cells (CellTiter-Glo, 72 hour). Format: cell-based, human. The settings on record: 10 μM to 316 pM. The method, boiled down: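 Human T-cell leukemia Jurkat cells in RPMI 1640 with 10% FBS were exposed 72 h at 37 °C, 5% CO2 to compounds from 10 μM to 316 pM in 0.5-log steps. Anti-proliferative effect measured by CellTiter-Glo; IC50 reported in binned categories.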

Chain of CDK7/Cyclin H/MAT1 trimeric complex (P50613 whole entry): as the sequence (P50613 whole entry) above
Chain of CDK7/Cyclin H/MAT1 trimeric complex (P51946 whole entry partner): as the sequence (P51946 whole entry partner) above
Chain of CDK7/Cyclin H/MAT1 trimeric complex (P51948 whole entry partner): as the sequence (P51948 whole entry partner) above

Consider “4-trans-acrylamido-N-((1S,3R)-3-(5-chloro-4-(1H-indol-3-yl)pyrimidin-2-ylamino)cyclohexyl)cyclohexanecarboxamide [Compound 117]”, for which the IC50 was less than 100 nM in experiment [1], less than 100 nM in experiment [2], less than 500 nM in experiment [3] and less than 500 nM in experiment [4].
In the case of `C=CC(=O)N1CCN(CC2(O)CCC[C@@H](Nc3ncc(Cl)c(-c4c[nH]c5ccccc45)n3)C2)CC1` (single isomer, unassigned) [Compound 188], the values for the 50% inhibitory concentration (IC50) in experiment [1], in experiment [3] and in experiment [4] were less than 100 nM, less than 500 nM and less than 500 nM, respectively.
As to `CN(C)C/C=C/C(=O)Nc1ccc(C(=O)N[C@H]2CCC[C@@H](Nc3ncc(Cl)c(-c4c[nH]c5ccccc45)n3)C2)nc1` [Compound 106, N-((1S,3R)-3-(5-chloro-4-(1H-indol-3-yl)pyrimidin-2-ylamino)cyclohexyl)-5-((E)-4-(dimethylamino)but-2-enamido)picolinamide], the figures for the IC50 in experiment [1], in experiment [2] and in experiment [3] (Homo sapiens) were less than 100 nM, less than 100 nM and less than 500 nM, respectively.
Turning to `CN(C)C/C=C/C(=O)Nc1ccc(C(=O)N[C@H]2CCC[C@@H](Nc3ncc(C#N)c(-c4c[nH]c5ccccc45)n3)C2)nc1` [Compound 110, N-((1S,3R)-3-(5-cyano-4-(1H-indol-3-yl)pyrimidin-2-ylamino)cyclohexyl)-5-((E)-4-(dimethylamino)but-2-enamido)picolinamide], the IC50 in experiment [1] was less than 100 nM; in experiment [2] it was less than 100 nM; in experiment [3] (Homo sapiens), less than 500 nM; in experiment [4] (Homo sapiens), less than 500 nM.
Turning to `C=CC(=O)Nc1cnc(C(=O)N[C@H]2CCC[C@@H](Nc3ncc(Cl)c(-c4c[nH]c5ccccc45)n3)C2)nc1` [Compound 112, 5-acrylamido-N-((1S,3R)-3-(5-chloro-4-(1H-indol-3-yl)pyrimidin-2-ylamino)cyclohexyl)pyrimidine-2-carboxamide], the half-maximal inhibitory concentration (IC50) in experiment [1] is 100 to 1000 nM; in experiment [2] it was less than 100 nM; in experiment [3] (Homo sapiens), less than 500 nM; in experiment [4] (Homo sapiens), more than 5000 nM.
For `CN(C)C/C=C/C(=O)Nc1cnc(C(=O)N[C@H]2CCC[C@@H](Nc3ncc(Cl)c(-c4c[nH]c5ccccc45)n3)C2)nc1` [Compound 113, N-((1S,3R)-3-(5-chloro-4-(1H-indol-3-yl)pyrimidin-2-ylamino)cyclohexyl)-5-((E)-4-(dimethylamino)but-2-enamido)pyrimidine-2-carboxamide], in that order: less than 100 nM, less than 100 nM, less than 500 nM and less than 500 nM.
`C=CC(=O)N1CCC[C@H]1C(=O)N[C@H]1CCC[C@@H](Nc2ncc(Cl)c(-c3c[nH]c4ccccc34)n2)C1` [Compound 115, (S)-1-acryloyl-N-((1S,3R)-3-(5-chloro-4-(1H-indol-3-yl)pyrimidin-2-ylamino)cyclohexyl)pyrrolidine-2-carboxamide]: the IC50 in experiment [1] was less than 100 nM; in experiment [2], less than 100 nM; in experiment [3] (Homo sapiens), less than 500 nM; in experiment [4] (Homo sapiens) it was less than 500 nM.
For the molecule `C=CC(=O)N1CC(F)(F)C[C@H]1C(=O)N[C@H]1CCC[C@@H](Nc2ncc(Cl)c(-c3c[nH]c4ccccc34)n2)C1` [Compound 116, (S)-1-acryloyl-N-((1S,3R)-3-(5-chloro-4-(1H-indol-3-yl)pyrimidin-2-ylamino)cyclohexyl)-4,4-difluoropyrrolidine-2-carboxamide], the IC50 in experiment [1] was less than 100 nM; in experiment [2], less than 100 nM; in experiment [3] (Homo sapiens), less than 500 nM.
Regarding `C=CC(=O)N1CCC(C(=O)N[C@H]2CCC[C@@H](Nc3ncc(Cl)c(-c4c[nH]c5ccccc45)n3)C2)CC1` [Compound 118, 1-acryloyl-N-((1S,3R)-3-(5-chloro-4-(1H-indol-3-yl)pyrimidin-2-ylamino)cyclohexyl)piperidine-4-carboxamide], the IC50 is less than 100 nM in experiment [1], less than 100 nM in experiment [2], less than 500 nM in experiment [3] (Homo sapiens) and less than 500 nM in experiment [4] (Homo sapiens).
As for `C=CC(=O)N1CCC(CN[C@H]2CCC[C@@H](Nc3ncc(Cl)c(-c4c[nH]c5ccccc45)n3)C2)CC1` [Compound 124, 1-(4-(((1S,3R)-3-(5-chloro-4-(1H-indol-3-yl)pyrimidin-2-ylamino)cyclohexylamino)methyl)piperidin-1-yl)prop-2-en-1-One], the IC50 is less than 100 nM in experiment [1], less than 100 nM in experiment [2] and more than 5000 nM in experiment [4] (Homo sapiens).
As to `C=CC(=O)N1CCC(NC[C@H]2CCC[C@@H](Nc3ncc(Cl)c(-c4c[nH]c5ccccc45)n3)C2)CC1` [Compound 127, 1-[4-[[(1S,3R)-3-[[5-chloro-4-(1H-indol-3-yl)pyrimidin-2-yl]amino]cyclohexyl]methylamino]-1-piperidyl]prop-2-en-1-One], the IC50 in experiment [1] was less than 100 nM; in experiment [2], less than 100 nM; in experiment [3] (Homo sapiens), less than 500 nM; in experiment [4] (Homo sapiens), more than 5000 nM.
Turning to `C=CC(=O)N1CCCC(C(=O)N[C@H]2CC[C@H](Nc3ncc(Cl)c(-c4c[nH]c5ccccc45)n3)CC2)C1` (some centres unmarked) [Compound 158, 1-acryloyl-N-((1r,4r)-4-(5-chloro-4-(1H-indol-3-yl)pyrimidin-2-ylamino)cyclohexyl)piperidine-3-carboxamide], the IC50 in experiment [1] is less than 100 nM; in experiment [2] it was less than 100 nM; in experiment [4] (Homo sapiens), 500 to 5000 nM.
As to `C=CC(=O)N1CCN([C@H]2CCC[C@@H](Nc3ncc(Cl)c(-c4c[nH]c5ccccc45)n3)C2)CC1` [Compound 168, 1-(4-((1S,3R)-3-(5-chloro-4-(1H-indol-3-yl)pyrimidin-2-ylamino)cyclohexyl)piperazin-1-yl)prop-2-en-1-One], the IC50 was less than 100 nM in experiment [1], less than 100 nM in experiment [2] and less than 500 nM in experiment [3] (Homo sapiens).
Take `C=CC(=O)N1CCC[C@@H]1C(=O)N[C@H]1CCC[C@@H](Nc2ncc(Cl)c(-c3c[nH]c4ccccc34)n2)C1` [Compound 173, (R)-1-acryloyl-N-((1S,3R)-3-(5-chloro-4-(1H-indol-3-yl)pyrimidin-2-ylamino)cyclohexyl)pyrrolidine-2-carboxamide]: the IC50 in experiment [1] was less than 100 nM; in experiment [2] it was less than 100 nM; in experiment [4] (Homo sapiens), 500 to 5000 nM.
For `C=CC(=O)N1CCC[C@@H](C(=O)N[C@H]2CCC[C@@H](Nc3ncc(Cl)c(-c4c[nH]c5ccccc45)n3)C2)C1` [Compound 174, (R)-1-acryloyl-N-((1S,3R)-3-(5-chloro-4-(1H-indol-3-yl)pyrimidin-2-ylamino)cyclohexyl)piperidine-3-carboxamide], the IC50 was less than 100 nM in experiment [1], less than 100 nM in experiment [2], less than 500 nM in experiment [3] (Homo sapiens) and less than 500 nM in experiment [4] (Homo sapiens).
As for `O=C(NC1CCCC(Nc2ncc(Cl)c(-c3cnn4ccccc34)n2)C1)C1CCN(C(=O)C=CCN2CCN(C3CC3)CC2)CC1` (centres unmarked) [Compound 223], the figures for the IC50 in experiment [1], in experiment [2] and in experiment [4] were less than 100 nM, less than 100 nM and more than 5000 nM, respectively.
As for `C=CC(=O)N1CC(N(C)[C@H]2CCC[C@@H](Nc3ncc(Cl)c(-c4c[nH]c5ccccc45)n3)C2)C1` [Compound 224], the results for the half-inhibitory concentration (IC50) in experiment [1], in experiment [2] and in experiment [4] (Homo sapiens) were less than 100 nM, less than 100 nM and more than 5000 nM, respectively.
On to `CN(C)C/C=C/C(=O)Nc1ccc(C(=O)N[C@H]2CCC[C@@H](Nc3ncc(C(F)(F)F)c(-c4c[nH]c5ccccc45)n3)C2)nc1` [Compound 248, N-((1S,3R)-3-((4-(1H-indol-3-yl)-5-(trifluoromethyl)pyrimidin-2-yl)amino)cyclohexyl)-5-((E)-4-(dimethylamino)but-2-enamido)picolinamide], for which the figures for the IC50 in experiment [1], in experiment [2] and in experiment [3] (Homo sapiens) were less than 100 nM, less than 100 nM and less than 500 nM, respectively.

Values taken from patent US10106526B2, “Inhibitors of cyclin-dependent kinase 7 (CDK7)” (SYROS PHARMACEUTICALS, INC., priority 2014, dated 2018).
